Measurements as given in patent US10472663B2, “Procedure for the rapid determination of bacterial susceptibility to antibiotics that inhibit protein synthesis” (ABM TECHNOLOGIES, LLC, priority 2015, dated 2019).
In brackets after ≈: the same amount, converted by molar mass.

Legend:
[1] = test system: Enterococcus faecalis; assay: MIC, standard antibiogram based on microdilution; type: cell-based
Experimental: (§1) A quantitative method may rely on dilution in a series of broths or agar solutions having progressively lower concentrations of the antibiotic in question. The lowest concentration of antibiotic in which the bacteria cannot grow provides the minimum inhibitory concentration of that antibiotic to the tested strain of bacteria. This quantitative method may be routinely employed in the hospitals, usually using commercial panels of antibiotics and semi-automated systems of incubation and software for data interpretation like the MicroScan WalkAway™ (Siemens), Phoenix (Becton Dickinson), or Vitek™ 2 (bioMérieux). With such growth-dependent automated systems, results of susceptibility or resistance to antimicrobians from a specific microorganism may be obtained in around 6-9 hours.
(§2) As an example, two strains of Enterococcus faecalis exponentially growing in Mueller-Hinton broth were incubated under four different conditions and then assayed. […] Each strain was subjected to four treatments for the purpose of rapidly distinguishing the susceptible and the resistant strain to erythromycin.

[2] = test system: Enterococcus faecalis; assay: Variant Micromax assay of cell lysis by lysozyme after erythromycin (Example 6); type: cell-based; conditions: for lysed cells: erythromycin 0.5 μg/ml 75 min, lysozyme 1 mg/ml during last 10 min
Experimental: as §2
The dose was that indicated by the CLSI as the breakpoint of susceptibility to erythromycin in the standard antibiogram based on microdilution. Another portion of both strains was incubated with lysozyme 1 mg/ml, 10 min at 37° C. […]
After incubation with lysozyme, the cells were processed using a variant of the Micromax technology to visualize the nucleoids, i.e. spreading of the bacterial chromosomal DNA, in all the cells of the population. Samples from the cultures were immersed in an agarose microgel on a slide and incubated with a specific lysing solution to remove the cell wall in all the cells and release in the microgel the nucleoids contained inside the bacteria. These are dried, stained with a highly sensitive fluorochrome for DNA like SYBR Gold and visualized under fluorescence microscopy.

[3] = test system: Staphylococcus aureus; assay: Micromax assay of DNA fragmentation by DNase released with lysostaphin after azithromycin (Example 3); type: cell-based; conditions: for DNA fragmentation of released nucleoids: azithromycin 2 μg/ml 120 min followed by lysostaphin 10 μg/ml 1 min
Experimental: In an exemplification of this principal, two strains of S. aureus growing in Mueller-Hinton agar with 5% sheep blood were assayed. One strain was susceptible to the macrolide azithromycin (an inhibitor of protein synthesis) (FIGS. 13-15) and the other strain was a clinical isolate resistant to azithromycin (FIGS. 16-18). The purpose was to rapidly distinguish susceptible and non-susceptible strains to azithromycin. Cultures were processed direct from standard growing agar plates 18-24 h and it was not necessary the cells being exponentially growing previously to the assay.
Each of these strain was subjected to four treatments. One portion of both strains was incubated with azithromycin at 2 μg/ml for 120 min; 2 μg/ml being indicated by the CLSI as the breakpoint of susceptibility to azithromycin. The cells were then lysed to release nucleoids and images of FIGS. 13 and 16 were generated. Another portion of each strain was incubated with lysostaphin at 10 μg/ml for 1 min. FIGS. 14 and 17 depict the nucleoids released in each strain for this treatment. Still another portion was incubated with Azithromycin at 2 μg/ml for 120 min followed by lysostaphin at 10 μg/ml for 1 min, without removing the azithromycin. The assays for these treatments can be seen at FIGS. 15 and 18. A final portion was left without either antibiotic.
After the incubation, the cells were processed using the variant of a Micromax technology to lyse cells with affected cell walls. As indicated previously, samples from cells from the culture are immersed in an agarose microgel on a slide and incubated with a specific lysing solution to remove the cell wall in those cells affected by lysostaphin and release in the microgel the nucleoids contained inside the bacteria. These are dried, stained with a highly sensitive fluorochrome for DNA like SYBR Gold and visualized under fluorescence microscopy.

[4] = test system: S. pneumoniae; assay: MIC, standard antibiogram based on microdilution; type: cell-based; conditions: Streptococcus pneumoniae
Experimental: as §1
(§3) In an exemplification of this principal, two strains of S. pneumoniae growing in Mueller-Hinton II broth complemented with cations and 2-5% lysed horse blood, at 37° C. with 5% CO2, were assayed. […] The purpose of the assay was to distinguish rapidly the susceptible and the resistant (i.e. non-susceptible) strain to azithromycin.

[5] = test system: S. pneumoniae; assay: Micromax assay of autolysis and DNA fragmentation induced by Triton-lysozyme-EDTA after azithromycin (Example 4); type: cell-based, Streptococcus pneumoniae; conditions: for cells lysed and with fragmented DNA: azithromycin 0.5 μg/ml 60 min followed by Triton-lysozyme-EDTA 5 min; for less fragmentation than incubation with Triton-lysozyme-EDTA alone: azithromycin 0.5 μg/ml 60 min followed by Triton-lysozyme-EDTA
Experimental: as §3
Each of these two strains were subjected to four treatments. A first portion of both strains was incubated with azithromycin at a concentration of 0.5 μg/ml for 60 min. The dose was that indicated by the CLSI as the breakpoint of susceptibility to azithromycin in the standard antibiogram based on microdilution. Another portion of both strains was incubated with 0.05% Triton X-100, 2 mg/ml lysozyme, 25 mM EDTA, 5 min. Still another portion of each strain was incubated with azithromycin at 0.5 μg/ml for 60 min followed by 0.05% Triton X-100, 2 mg/ml lysozyme, 25 mM EDTA, 5 min, without removing the azithromycin. A final portion of each strain remained without any antibiotics.
After incubation cells were processed using the variant of the Micromax technology to visualize the nucleoids. In the same manner indicated previously, samples from cells from the culture are immersed in an agarose microgel on a slide and incubated with a specific lysing solution to remove the cell wall in all the cells and release in the microgel the nucleoids contained inside the bacteria. […] The microgels are dried, stained with a high sensitive fluorochrome for DNA like SYBR Gold and visualized under fluorescence microscopy.

[6] = test system: H. influenzae; assay: Cell enlargement by low-dose mitomycin C after azithromycin; type: cell-based, Haemophilus influenzae; conditions: azithromycin 4 μg/ml 30 min followed by mitomycin C 0.5 μg/ml 120 min; azithromycin-resistant strain
Experimental: In one exemplification, two strains of H. influenzae exponentially growing in Mueller-Hinton broth were incubated under four differing treatments and then assayed. One strain was susceptible and the other resistant to the macrolide azithromycin (an inhibitor of protein synthesis). For the purpose of rapidly distinguishing the susceptible and the resistant strain to azithromycin each strain was incubated under four sets of conditions.
A portion of each strain was incubated with azithromycin at 4 μg/ml for 150 minutes. The dose azithromycin corresponded to the dose indicated by the CLSI as the breakpoint of susceptibility to azithromycin in the standard antibiograms based on microdilution. Another portion of each strain was incubated with Mitomycin C at 0.5 μg/ml for 120 minutes. Still another portion was incubated with azithromycin at 4 μg/ml for 30 min followed by mitomycin C at 0.5 μg/ml for 120 min, without removing the azithromycin. A final portion of each strain was not incubated with any antibiotics.

[7] = erythromycin-susceptible strain
[8] = azithromycin-susceptible strain

Row | SMILES | MIC ([1]; erythromycin-resistant strain) [µg/mL] | MIC [1, 7] [µg/mL] | lysed cells ([2]; erythromycin-resistant strain) [%] | lysed cells [2, 7] [%] | response pattern in further Enterococcus strains ([2]; four more erythromycin-susceptible and thirteen more erythromycin-resistant strains) | DNA fragmentation of released nucleoids ([3]; azithromycin-resistant clinical isolate) | DNA fragmentation of released nucleoids [3, 8] | modification of the appearance of the bacteria ([3]; azithromycin alone 2 μg/ml 120 min, both strains) | MIC ([4]; azithromycin-resistant strain) [µg/mL] | MIC [4, 8] [µg/mL] | cells lysed and with fragmented DNA ([5]; resistant strain) [%] | cells lysed and with fragmented DNA ([5]; susceptible strain) | less fragmentation than incubation with Triton-lysozyme-EDTA alone ([5]; resistant strain) [%] | less fragmentation than incubation with Triton-lysozyme-EDTA alone ([5]; susceptible strain) [%] | modification of the bacteria ([5]; azithromycin alone 0.5 μg/ml 60 min, both strains) | cell enlargement [6]
1 | CC[C@H]1OC(=O)[C@H](C)[C@@H](O[C@H]2C[C@@](C)(OC)[C@@H](O)[C@H](C)O2)[C@H](C)[C@@H](O[C@@H]2O[C@H](C)C[C@H](N(C)C)[C@H]2O)[C@](C)(O)C[C@@H](C)C(=O)[C@H](C)[C@@H](O)[C@]1(C)O [erythromycin] | > 128 | 0.125 (≈ 0.17 µM) | 96.77 | 3.87 | a similar response pattern has been reproduced |  |  |  |  |  |  |  |  |  |  | 
2 | CC[C@H]1OC(=O)[C@H](C)[C@@H](O[C@H]2C[C@@](C)(OC)[C@@H](O)[C@H](C)O2)[C@H](C)[C@@H](O[C@@H]2O[C@H](C)C[C@H](N(C)C)[C@H]2O)[C@](C)(O)C[C@@H](C)CN(C)[C@H](C)[C@@H](O)[C@]1(C)O [azithromycin] |  |  |  |  |  | a large extend of DNA fragmentation | strongly reduced level of DNA fragmentation or even suppression of DNA fragmentation | did not result in modification of the appearance of the bacteria | > 32 | 0.25 (≈ 0.334 µM) | 86 | about 40% | 7 | 44 | did not result in modification of the bacteria | the bacteria appeared enlarged
